Assay results as given in ChEMBL document CHEMBL1145916, “A method for designing conformationally restricted analogues based on allylic strain: synthesis of a novel class of noncompetitive NMDA receptor antagonists having the acrylamide structure” (J Med Chem, 2003).

target: Glutamate NMDA receptor; test: Binding affinity for N-methyl-D-aspartate glutamate receptor of cerebral cortical synaptic membranes from rats using [3H]MK-801 as radioligand

SMILES	IC50 [µM]
CCCN(CCC)C(=O)/C(=C\C1CCCN1)c1ccccc1 (stereo not given)	0.54
CCCN(CCC)C(=O)/C(=C\C1CCCN1)c1ccc(C)cc1 (stereo not given)	> 1000
CCCN(CCC)C(=O)/C(=C\C1CCCN1)c1ccccc1F (stereo not given)	1.7
CCCN(CCC)C(=O)/C(=C\C(N)CC)c1ccccc1 (stereo not given)	0.53
O=C(/C(=C\C1CCCN1)c1ccccc1)N1CCCCCC1 (stereo not given)	16
CCCN(CCC)C(=O)/C(=C\C1CCCN1)c1cccc(F)c1 (stereo not given)	0.42
CCN(CC)C(=O)/C(=C\C1CCCN1)c1ccccc1 (stereo not given)	3.6
CC[C@H](N)[C@@H]1C[C@@]1(C(=O)N(CC)CC)c1ccccc1	0.2

More lines, now with the values ahead:

IC50 [µM]	SMILES
1	CCN(CC)C(=O)[C@@]1(c2ccccc2)C[C@H]1C1CCCN1 (stereo not given in full)
0.52	C=C(C)CN(CC)C(=O)/C(=C\C1CCCN1)c1ccccc1 (stereo not given)
0.74	CCCN(CC1CC1)C(=O)/C(=C\C1CCCN1)c1ccccc1 (stereo not given)
4.2	CCCCN(CCCC)C(=O)/C(=C\C1CCCN1)c1ccccc1 (stereo not given)
> 1000	O=C(/C(=C\C1CCCN1)c1ccccc1)N1CCNCC1 (stereo not given)
13	CCCN(CCC)C(=O)/C(=C\C1CCCN1)c1ccc(F)cc1 (stereo not given)
160	CCCN(CCC)C(=O)/C(=C\C1CCCN1)c1ccc(OC)cc1 (stereo not given)
